In ChEMBL document CHEMBL5108002, “Design, synthesis, and biological evaluation of novel 7-substituted 10,11-methylenedioxy-camptothecin derivatives against drug-resistant small-cell lung cancer in vitro and in vivo” (Eur J Med Chem, 2022):
Active and inactive are the calls of the source. The rule behind the calls is not given here.

What was measured:
NCI-H446 [1] = assay: Induction of apoptosis in human NCI-H446 cells assessed as late apoptotic cells at 0.1 nM incubated for 24 hrs by AnnexinV-FITC/PI staining based flow cytometry analysis (reference value: 0.37 %); assay type: functional
NCI-H446 [2] = assay: Antiproliferative activity against Irinotecan-resistant human NCI-H446 cells assessed as inhibition of cell growth incubated for 72 hrs by SRB assay; assay type: functional, cell-based; conditions: NCI-H446, 72 h
H69AR [3] = assay: Induction of apoptosis in human NCI-H69AR cells assessed as increase in cleaved-caspase 3 protein expression at 0.1 to 100 nM measured after 24 hrs by Western blot analysis; assay type: functional, cell-based; conditions: dose 0.1-100 nM
H69AR [4] = assay: Induction of apoptosis in human NCI-H69AR cells assessed as late apoptotic cells at 10 nM incubated for 24 hrs by AnnexinV-FITC/PI staining based flow cytometry analysis (reference value: 2.99 %); assay type: functional
NCI-H446 [5] = assay: Antitumor activity against human NCI-H446 cells xenografted in BALB/c nude mouse assessed as reduction in large tumor growth at 3 mg/kg, IG administered for 31 days by electronic caliper method; assay type: functional, organism-based; conditions: time 31.0 day
H69AR [6] = assay: Induction of apoptosis in human NCI-H69AR cells assessed as reduction in survivin mRNA expression at 0.1 to 100 nM incubated for 24 hrs by RT-PCR analysis; assay type: functional, cell-based; conditions: dose 0.1-100 nM
H69AR [7] = assay: Induction of apoptosis in human NCI-H69AR cells assessed as reduction in XIAP mRNA expression at 0.1 to 100 nM incubated for 24 hrs by RT-PCR analysis; assay type: functional, cell-based; conditions: dose 0.1-100 nM
NCI-H446 [8] = assay: Induction of apoptosis in human NCI-H446 cells assessed as late apoptotic cells at 1 nM incubated for 24 hrs by AnnexinV-FITC/PI staining based flow cytometry analysis (reference value: 0.37 %); assay type: functional
NCI-H446 [9] = assay: Induction of apoptosis in human NCI-H446 cells assessed as increase in cleaved-PARP protein expression at 0.1 to 100 nM measured after 24 to 48 hrs by Western blot analysis; assay type: functional, cell-based; conditions: dose 0.1-100 nM, time 24-48 hrs
NCI-H446 [10] = assay: Induction of apoptosis in human NCI-H446 cells assessed as reduction in XIAP mRNA level at 0.1 to 100 nM incubated for 24 hrs by RT-PCR analysis; assay type: functional, cell-based; conditions: dose 0.1-100 nM
H69AR [11] = assay: Induction of apoptosis in human NCI-H69AR cells assessed as dead cells at 100 nM incubated for 24 hrs by AnnexinV-FITC/PI staining based flow cytometry analysis (reference value: 1.92 %); assay type: functional
NCI-H446 [12] = assay: Induction of apoptosis in human NCI-H446 cells assessed as inhibition of XIAP protein expression incubated for 24 hrs by Western blot analysis; assay type: functional, cell-based; conditions: dose 0.1-100 nM
NCI-H446 [13] = assay: Induction of apoptosis in human NCI-H446 cells assessed as inhibition of Bcl-2 protein expression incubated for 24 hrs by Western blot analysis; assay type: functional, cell-based; conditions: dose 0.1-100 nM
H69AR [14] = assay: Antiproliferative activity against human NCI-H69AR cells assessed as inhibition of cell growth incubated for 72 hrs by SRB assay; assay type: functional, cell-based
NCI-H446 [15] = assay: Antitumor activity against etoposide/cisplatin combination-resistant human NCI-H446 cells xenografted in BALB/c nude mouse assessed as average tumor mass at 3 mg/kg, IG administered once a week and measured 3 times a week; assay type: functional
SH-SY5Y = assay: Antiproliferative activity against human SH-SY5Y cells assessed as inhibition of cell growth incubated for 72 hrs by SRB assay; assay type: functional, cell-based
NCI-H69 [16] = assay: Induction of apoptosis in human NCI-H69 cells assessed as inhibition of XIAP protein expression at 0.1 to 100 nM incubated for 24 hrs by Western blot analysis; assay type: functional, cell-based; conditions: dose 0.1-100 nM
NCI-H446 [17] = assay: Induction of apoptosis in human NCI-H446 cells assessed as reduction in survivin mRNA level at 0.1 to 100 nM incubated for 24 hrs by RT-PCR analysis; assay type: functional, cell-based; conditions: dose 0.1-100 nM
H69AR [18] = assay: Induction of apoptosis in human NCI-H69AR cells assessed as early apoptotic cells at 1 nM incubated for 24 hrs by AnnexinV-FITC/PI staining based flow cytometry analysis (reference value: 0.35 %); assay type: functional
H69AR [19] = assay: Induction of apoptosis in human NCI-H69AR cells assessed as inhibition of Mcl-1 protein expression at 0.1 to 100 nM incubated for 24 hrs by Western blot analysis; assay type: functional, cell-based; conditions: dose 0.1-100 nM
Mus musculus = assay: Downregulation of survivin protein expression in tumor of BALB/c mouse xenografted with human NCI-H446 cells at 0.75 mg/kg, IG administered intragastrically once a week for 28 days by western blot analysis; assay type: functional, organism-based; conditions: time 28.0 day
NCI-H69 [20] = assay: Induction of apoptosis in human NCI-H69 cells assessed as inhibition of Bcl-2 protein expression at 0.1 to 100 nM incubated for 24 hrs by Western blot analysis; assay type: functional, cell-based; conditions: dose 0.1-100 nM
NCI-H446 [21] = assay: Antitumor activity against etoposide/cisplatin combination-resistant human NCI-H446 cells xenografted in BALB/c nude mouse assessed as tumor growth inhibition at 3 mg/kg, IG administered once a week and measured 3 times a week relative to control; assay type: functional; conditions: NCI-H446, po, read-out: TGI
NCI-H446 [22] = assay: Antitumor activity against Irinotecan-resistant human NCI-H446 cells xenografted in BALB/c nude mouse assessed as tumor weight at 3 mg/kg, IG administered once a week and measured 3 times a week for 35 days; assay type: functional; conditions: time 35 day
NCI-H446 [23] = assay: Induction of apoptosis in human NCI-H446 cells assessed as early apoptotic cells at 10 nM incubated for 24 hrs by AnnexinV-FITC/PI staining based flow cytometry analysis (reference value: 3.1 %); assay type: functional
NCI-H446 [24] = assay: Induction of apoptosis in human NCI-H446 cells assessed as downregulation of survivin protein expression at 0.1 to 100 nM measured for 48 hrs by Western blot analysis; assay type: functional, cell-based; conditions: dose 0.1-100 nM
NCI-H446 [25] = assay: Induction of apoptosis in human NCI-H446 cells assessed as dead cells at 0.1 nM incubated for 24 hrs by AnnexinV-FITC/PI staining based flow cytometry analysis (reference value: 0.22 %); assay type: functional
NCI-H69 [26] = assay: Induction of apoptosis in human NCI-H69 cells assessed as inhibition of Mcl-1 protein expression at 0.1 to 100 nM incubated for 24 hrs by Western blot analysis; assay type: functional, cell-based; conditions: dose 0.1-100 nM
[27] = Toxicity in BALB/c nude mouse xenografted with Irinotecan-resistant human NCI-H446 cells assessed as reduction in body weight at 3 mg/kg, IG administered once a week and measured 3 times a week for 35 days; assay type: organism-based; conditions: in vivo, po, 840 h, time 35 day
H69AR [28] = assay: Induction of apoptosis in human NCI-H69AR cells assessed as dead cells at 1 nM incubated for 24 hrs by AnnexinV-FITC/PI staining based flow cytometry analysis (reference value: 1.92 %); assay type: functional
NCI-H69 [29] = assay: Induction of apoptosis in human NCI-H69 cells assessed as inhibition of survivin protein expression at 0.1 to 100 nM incubated for 24 hrs by Western blot analysis; assay type: functional, cell-based; conditions: dose 0.1-100 nM
NCI-H446 [30] = assay: Induction of apoptosis in human NCI-H446 cells assessed as increase in cleaved-caspase 9 protein expression at 0.1 to 100 nM measured after 24 to 48 hrs by Western blot analysis; assay type: functional, cell-based; conditions: dose 0.1-100 nM, time 24-48 hrs
NCI-H69 [31] = assay: Induction of apoptosis in human NCI-H69 cells assessed as reduction in Bcl-2 mRNA expression at 0.1 to 100 nM incubated for 24 hrs by RT-PCR analysis; assay type: functional, cell-based; conditions: dose 0.1-100 nM

With CC[C@@]1(O)C(=O)OCc2c1cc1n(c2=O)Cc2c-1nc1cc3c(cc1c2-c1ccoc1)OCO3 the Activity (NCI-H446 [1]) was 3.73%, the IC50 (NCI-H446 [2]) was 0.5 nM and the Activity (H69AR [3]) was “Active”. For the same compound, the Activity (H69AR [4]) was 12.48%, the Activity (NCI-H446 [5]) was “Active” and the Activity (H69AR [6]) was “Active”. For the same compound, the Activity (H69AR [7]) was “Active”, the Activity (NCI-H446 [8]) was 9.6% and the Activity (NCI-H446 [9]) was “Active”. For the same compound, the Activity (NCI-H446 [10]) was “Active”, the Activity (H69AR [11]) was 1.47% and the inhibition (NCI-H446 [12]) was “Active”. The inhibition (NCI-H446 [13]) was “Active”, the IC50 (H69AR [14]) was 5.57 nM and the Activity (NCI-H446 [15]) was 0.23 g. For the same compound, the IC50 (SH-SY5Y) was 7.91 nM, the inhibition (NCI-H69 [16]) was “Active” and the Activity (NCI-H446 [17]) was “Active”. The Activity (H69AR [18]) was 0.62%, the inhibition (H69AR [19]) was “Active” and the Activity (Mus musculus) was “Active”. The inhibition (NCI-H69 [20]) was “Active”, the inhibition in vivo at 3 mg/kg (NCI-H446 [21]) was 84.5% and the Activity (NCI-H446 [22]) was 0.15 g. The Activity (NCI-H446 [23]) was 15.81%, the Activity (NCI-H446 [24]) was “Active” and the Activity (NCI-H446 [25]) was 0.91%. The inhibition (NCI-H69 [26]) was “Active”, the Activity [27] was “Non-Toxic” and the Activity (H69AR [28]) was 2.61%. For the same compound, the inhibition (NCI-H69 [29]) was “Active”, the Activity (NCI-H446 [30]) was “Active” and the Activity (NCI-H69 [31]) was “Active”.
